Laboratory results from patent US20100267561A1, “HERBICIDAL PYRIDAZINONE DERIVATIVES” (priority 2007, published 2010).

Experiments:
Assay in all cases: Test E pre-/postemergence plant response
Assay type in all cases: in vivo
[1] = test system: Italian ryegrass (Lolium multiflorum); details: scale 0 to 100
Method in brief: (§1)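 In this greenhouse assay, sown seeds received preemergence treatment and young plants of 2 to 18 cm (1- to 4-leaf stage) received postemergence treatment, both with compound in a non-phytotoxic solvent and surfactant vehicle. Effects were rated visually 14 to 21 days later on a 0–100 control scale.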

[2] = test system: bermudagrass (Cynodon dactylon); details: scale 0 to 100
Method in brief: as §1

[3] = test system: black mustard (Brassica nigra); details: scale 0 to 100
Method in brief: as §1

[4] = test system: common chickweed (Stellaria media); details: Postemergence, scale 0 to 100
Method in brief: as §1

[5] = test system: common purslane (Portulaca oleracea); details: scale 0 to 100
Method in brief: as §1

[6] = test system: dallisgrass (Paspalum dilatatum); details: scale 0 to 100
Method in brief: as §1

[7] = test system: goosegrass (Eleusine indica); details: scale 0 to 100
Method in brief: as §1

[8] = test system: green foxtail (Setaria viridis); details: scale 0 to 100
Method in brief: as §1

[9] = test system: johnsongrass (Sorghum halepense); details: scale 0 to 100
Method in brief: as §1

[10] = test system: large crabgrass (Digitaria sanguinalis); details: scale 0 to 100
Method in brief: as §1

[11] = test system: purple nutsedge (Cyperus rotundus); details: scale 0 to 100
Method in brief: as §1

[12] = test system: southern (S.) sandbur (Cenchrus echinatus); details: scale 0 to 100
Method in brief: as §1

`CCc1cc(-c2ccc(Cl)cc2)nn1-c1c(OS(C)(=O)=O)cnn(C)c1=O` [Compound 39] was tested, and the “Plant response rating, Ryegrass, Italian” value ([1]; 16 g ai/ha, Preemergence) was 100, the “Plant response rating, Ryegrass, Italian” value ([1]; 31 g ai/ha, Preemergence) was 100 and the “Plant response rating, Ryegrass, Italian” value ([1]; Postemergence, 8 g ai/ha) was 75. The “Plant response rating, Ryegrass, Italian” value ([1]; Postemergence, 16 g ai/ha) was 98, the “Plant response rating, Ryegrass, Italian” value ([1]; Postemergence, 31 g ai/ha) was 98 and the “Plant response rating, Ryegrass, Italian” value ([1]; Postemergence, 62 g ai/ha) was 100. For the same compound, the “Plant response rating, Bermudagrass” value ([2]; 8 g ai/ha, Preemergence) was 20, the “Plant response rating, Bermudagrass” value ([2]; 16 g ai/ha, Preemergence) was 75 and the “Plant response rating, Bermudagrass” value ([2]; 31 g ai/ha, Preemergence) was 95. The “Plant response rating, Bermudagrass” value ([2]; 62 g ai/ha, Preemergence) was 100, the “Plant response rating, Bermudagrass” value ([2]; Postemergence, 8 g ai/ha) was 35 and the “Plant response rating, Bermudagrass” value ([2]; Postemergence, 16 g ai/ha) was 40. The “Plant response rating, Bermudagrass” value ([2]; Postemergence, 31 g ai/ha) was 50, the “Plant response rating, Bermudagrass” value ([2]; Postemergence, 62 g ai/ha) was 65 and the “Plant response rating, Mustard, Black” value ([3]; 8 g ai/ha, Preemergence) was 0. For the same compound, the “Plant response rating, Mustard, Black” value ([3]; 16 g ai/ha, Preemergence) was 0, the “Plant response rating, Mustard, Black” value ([3]; 31 g ai/ha, Preemergence) was 0 and the “Plant response rating, Mustard, Black” value ([3]; 62 g ai/ha, Preemergence) was 0. For the same compound, the “Plant response rating, Mustard, Black” value ([3]; Postemergence, 8 g ai/ha) was 0, the “Plant response rating, Mustard, Black” value ([3]; Postemergence, 16 g ai/ha) was 0 and the “Plant response rating, Mustard, Black” value ([3]; Postemergence, 31 g ai/ha) was 0. For the same compound, the “Plant response rating, Mustard, Black” value ([3]; Postemergence, 62 g ai/ha) was 0, the “Plant response rating, Chickweed” value ([4]; 8 g ai/ha) was 0 and the “Plant response rating, Chickweed” value ([4]; 16 g ai/ha) was 0. The “Plant response rating, Chickweed” value ([4]; 31 g ai/ha) was 0, the “Plant response rating, Chickweed” value ([4]; 62 g ai/ha) was 0 and the “Plant response rating, Purslane” value ([5]; 16 g ai/ha, Preemergence) was 0. For the same compound, the “Plant response rating, Purslane” value ([5]; 31 g ai/ha, Preemergence) was 0, the “Plant response rating, Purslane” value ([5]; 62 g ai/ha, Preemergence) was 0 and the “Plant response rating, Purslane” value ([5]; Postemergence, 8 g ai/ha) was 0. For the same compound, the “Plant response rating, Purslane” value ([5]; Postemergence, 16 g ai/ha) was 0, the “Plant response rating, Purslane” value ([5]; Postemergence, 31 g ai/ha) was 0 and the “Plant response rating, Purslane” value ([5]; Postemergence, 62 g ai/ha) was 0. For the same compound, the “Plant response rating, Dallisgrass” value ([6]; 8 g ai/ha, Preemergence) was 35, the “Plant response rating, Dallisgrass” value ([6]; 16 g ai/ha, Preemergence) was 98 and the “Plant response rating, Dallisgrass” value ([6]; 31 g ai/ha, Preemergence) was 98. For the same compound, the “Plant response rating, Dallisgrass” value ([6]; 62 g ai/ha, Preemergence) was 100, the “Plant response rating, Dallisgrass” value ([6]; Postemergence, 8 g ai/ha) was 60 and the “Plant response rating, Dallisgrass” value ([6]; Postemergence, 16 g ai/ha) was 70. The “Plant response rating, Dallisgrass” value ([6]; Postemergence, 31 g ai/ha) was 75, the “Plant response rating, Dallisgrass” value ([6]; Postemergence, 62 g ai/ha) was 75 and the “Plant response rating, Goosegrass” value ([7]; 8 g ai/ha, Preemergence) was 75. For the same compound, the “Plant response rating, Goosegrass” value ([7]; 16 g ai/ha, Preemergence) was 80, the “Plant response rating, Goosegrass” value ([7]; 31 g ai/ha, Preemergence) was 100 and the “Plant response rating, Goosegrass” value ([7]; 62 g ai/ha, Preemergence) was 100. The “Plant response rating, Goosegrass” value ([7]; Postemergence, 8 g ai/ha) was 35, the “Plant response rating, Goosegrass” value ([7]; Postemergence, 16 g ai/ha) was 70 and the “Plant response rating, Goosegrass” value ([7]; Postemergence, 31 g ai/ha) was 80. For the same compound, the “Plant response rating, Goosegrass” value ([7]; Postemergence, 62 g ai/ha) was 95, the “Plant response rating, Foxtail, Green” value ([8]; 8 g ai/ha, Preemergence) was 75 and the “Plant response rating, Foxtail, Green” value ([8]; 16 g ai/ha, Preemergence) was 90. The “Plant response rating, Foxtail, Green” value ([8]; 31 g ai/ha, Preemergence) was 98, the “Plant response rating, Foxtail, Green” value ([8]; 62 g ai/ha, Preemergence) was 100 and the “Plant response rating, Foxtail, Green” value ([8]; Postemergence, 8 g ai/ha) was 60. For the same compound, the “Plant response rating, Foxtail, Green” value ([8]; Postemergence, 16 g ai/ha) was 70, the “Plant response rating, Foxtail, Green” value ([8]; Postemergence, 31 g ai/ha) was 75 and the “Plant response rating, Foxtail, Green” value ([8]; Postemergence, 62 g ai/ha) was 95. The “Plant response rating, Johnsongrass” value ([9]; 16 g ai/ha, Preemergence) was 75, the “Plant response rating, Johnsongrass” value ([9]; 31 g ai/ha, Preemergence) was 80 and the “Plant response rating, Johnsongrass” value ([9]; 62 g ai/ha, Preemergence) was 98. For the same compound, the “Plant response rating, Johnsongrass” value ([9]; Postemergence, 8 g ai/ha) was 35, the “Plant response rating, Johnsongrass” value ([9]; Postemergence, 16 g ai/ha) was 75 and the “Plant response rating, Johnsongrass” value ([9]; Postemergence, 31 g ai/ha) was 75. For the same compound, the “Plant response rating, Johnsongrass” value ([9]; Postemergence, 62 g ai/ha) was 95, the “Plant response rating, Crabgrass, Large” value ([10]; 8 g ai/ha, Preemergence) was 30 and the “Plant response rating, Crabgrass, Large” value ([10]; 16 g ai/ha, Preemergence) was 60. For the same compound, the “Plant response rating, Crabgrass, Large” value ([10]; 31 g ai/ha, Preemergence) was 98, the “Plant response rating, Crabgrass, Large” value ([10]; 62 g ai/ha, Preemergence) was 100 and the “Plant response rating, Crabgrass, Large” value ([10]; Postemergence, 8 g ai/ha) was 65. For the same compound, the “Plant response rating, Crabgrass, Large” value ([10]; Postemergence, 16 g ai/ha) was 90, the “Plant response rating, Crabgrass, Large” value ([10]; Postemergence, 31 g ai/ha) was 95 and the “Plant response rating, Crabgrass, Large” value ([10]; Postemergence, 62 g ai/ha) was 98. For the same compound, the “Plant response rating, Nutsedge, Purple” value ([11]; 16 g ai/ha, Preemergence) was 0, the “Plant response rating, Nutsedge, Purple” value ([11]; 31 g ai/ha, Preemergence) was 0 and the “Plant response rating, Nutsedge, Purple” value ([11]; Postemergence, 8 g ai/ha) was 0. For the same compound, the “Plant response rating, Nutsedge, Purple” value ([11]; Postemergence, 16 g ai/ha) was 0, the “Plant response rating, Nutsedge, Purple” value ([11]; Postemergence, 31 g ai/ha) was 0 and the “Plant response rating, Nutsedge, Purple” value ([11]; Postemergence, 62 g ai/ha) was 0. For the same compound, the “Plant response rating, Sandbur, S.” value ([12]; 16 g ai/ha, Preemergence) was 90, the “Plant response rating, Sandbur, S.” value ([12]; 31 g ai/ha, Preemergence) was 100 and the “Plant response rating, Sandbur, S.” value ([12]; 62 g ai/ha, Preemergence) was 100. The “Plant response rating, Sandbur, S.” value ([12]; Postemergence, 8 g ai/ha) was 75, the “Plant response rating, Sandbur, S.” value ([12]; Postemergence, 16 g ai/ha) was 85 and the “Plant response rating, Sandbur, S.” value ([12]; Postemergence, 31 g ai/ha) was 95. For the same compound, the “Plant response rating, Sandbur, S.” value ([12]; Postemergence, 62 g ai/ha) was 100.
